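Tested at 5 concentrations; 48 h exposure; 96-well plates; endpoints linearly interpolated, else capped at highest concentration. Here, GI50 denotes the concentration required for 50% inhibition of growth.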 Activity calls are given as the source filed them. No stated cut-off is given here; in the data, active = GI50 up to about 1.1 µM and inactive = higher. Where a SMILES comes first, the peptide text is derived from it. The star is where a group is joined. Fmoc = O=C(OCC1c2ccccc2-c2ccccc21)*; OBn = c1ccc(CO*)cc1; tBu = CC(C)(C)*
Key:
Assay in all cases: inhibition of tumour cell growth, NCI panel, 48 h
OVCAR-4 = tested on: OVCAR-4
RPMI-8226 = tested on: RPMI-8226
SW-620 = tested on: SW-620
M14 = tested on: M14
Hs-578T = tested on: Hs-578T
SNB-19 = tested on: SNB-19
NCI-H522 = tested on: NCI-H522
U-251 = tested on: U-251
MDA-MB-231 = tested on: MDA-MB-231
HT-29 = tested on: HT-29
IGROV-1 = tested on: IGROV-1
SK-MEL-2 = tested on: SK-MEL-2
MDA-MB-435 = tested on: MDA-MB-435
OVCAR-8 = tested on: OVCAR-8
786-0 = tested on: 786-0
RXF 393 = tested on: RXF 393
SF-268 = tested on: SF-268
HCC 2998 = tested on: HCC 2998
HCT-15 = tested on: HCT-15
LOX IMVI = tested on: LOX IMVI

Row | Structure (SMILES) | GI50 (OVCAR-4) | GI50 (RPMI-8226) | GI50 (SW-620) | GI50 (M14) | GI50 (Hs-578T) | GI50 (SNB-19) | GI50 (NCI-H522) | GI50 (U-251) | GI50 (MDA-MB-231) | GI50 (HT-29) | GI50 (IGROV-1) | GI50 (SK-MEL-2) | GI50 (MDA-MB-435) | GI50 (OVCAR-8) | GI50 (786-0) | GI50 (RXF 393) | GI50 (SF-268) | GI50 (HCC 2998) | GI50 (HCT-15) [µM] | GI50 (LOX IMVI)
1 | CC(OC(C)(C)C)C(NC(=O)OCC1c2ccccc2-c2ccccc21)C(=O)NC(Cc1ccccc1)C(=O)OCc1ccccc1 (stereo not given) (Fmoc-Thr(tBu)-Phe-OBn; configuration not given here) | > 100 µM (inactive) | > 71.8 µM (inactive) | > 100 µM (inactive) | > 100 µM (inactive) | > 100 µM (inactive) | > 100 µM (inactive) | > 100 µM (inactive) | > 100 µM (inactive) | > 48.4 µM (inactive) | > 100 µM (inactive) | > 100 µM (inactive) | > 100 µM (inactive) | > 100 µM (inactive) | > 100 µM (inactive) | > 100 µM (inactive) | > 100 µM (inactive) | > 100 µM (inactive) | > 100 µM (inactive) | > 100 | > 100 µM (inactive)
2 | c1ccc(SCCc2ccncc2)cc1 | 98.2 µM (inactive) | 20.5 µM (inactive) | > 100 µM (inactive) | 75 µM (inactive) | > 100 µM (inactive) | > 100 µM (inactive) | 31 µM (inactive) | > 100 µM (inactive) | > 100 µM (inactive) | > 100 µM (inactive) | > 100 µM (inactive) | > 100 µM (inactive) | > 100 µM (inactive) | > 100 µM (inactive) | > 100 µM (inactive) | > 100 µM (inactive) | > 100 µM (inactive) | > 100 µM (inactive) | > 100 | > 100 µM (inactive)
3 | Cc1occc1C(=S)Nc1ccc(Cl)c(/C=N/OC(C)C)c1 | 24.9 µM (inactive) | 20 µM (inactive) | 20.9 µM (inactive) | 23.3 µM (inactive) | 26.7 µM (inactive) | 27.1 µM (inactive) | 12.7 µM (inactive) | 19.5 µM (inactive) | 16.4 µM (inactive) | 19.3 µM (inactive) | 27.8 µM (inactive) | 19.2 µM (inactive) | 16.4 µM (inactive) | 22.8 µM (inactive) | 18.5 µM (inactive) | 21.3 µM (inactive) | 28.1 µM (inactive) | 26.5 µM (inactive) | 17.4 | 16 µM (inactive)
4 | COCc1nc2c(OC)c(-c3nc4ccc(N5CCN(C)CC5)nc4[nH]3)cc(OC)c2n1C | 34 µM (inactive) | 18.7 µM (inactive) | 28.6 µM (inactive) | 21.3 µM (inactive) | 55.3 µM (inactive) | 35.4 µM (inactive) | 27.4 µM (inactive) | 21.7 µM (inactive) | 17.7 µM (inactive) | 19.9 µM (inactive) | 43.8 µM (inactive) | 22 µM (inactive) | 20.4 µM (inactive) | 33.9 µM (inactive) | 43.7 µM (inactive) | 20.3 µM (inactive) | 45.2 µM (inactive) | 14.4 µM (inactive) | 40.9 | 19.1 µM (inactive)
5 | O=C(O)CCCCn1cnc2c(S)ncnc21 | > 100 µM (inactive) | > 100 µM (inactive) | > 100 µM (inactive) | > 100 µM (inactive) | > 100 µM (inactive) | > 100 µM (inactive) | > 100 µM (inactive) | > 100 µM (inactive) | > 100 µM (inactive) | > 100 µM (inactive) | > 100 µM (inactive) | > 100 µM (inactive) | > 100 µM (inactive) | > 100 µM (inactive) | > 100 µM (inactive) | > 100 µM (inactive) | > 100 µM (inactive) | > 100 µM (inactive) | > 100 | > 100 µM (inactive)

Reference: ChEMBL document CHEMBL1201862, “PubChem BioAssay data set” (2004)
